Experiments:
[1] = molecular target: T1, ACE2-B^0AT1 complex (Homo sapiens, UniProt Q695T7); experiment: cryo-EM structure of the complex, […] A; type: binding; details: central substrate site between TM1 and TM6
T1 construct: gene SLC6A19; purified complex for cryo-EM; with Angiotensin-converting enzyme 2

[2] = molecular target: T2, ACE2-SIT1 complex (Homo sapiens, UniProt Q9NP91, Q247A); experiment: Pro-induced transport current in HEK293T cells co-expressing SIT1 and ACE2; type: cell-based
T2 construct: gene SLC6A20; co-expressed in HEK293T cells for currents; purified complex for cryo-EM (two protomers, each ACE2 plus SIT1); with Angiotensin-converting enzyme 2
T2 sequence (Q9NP91 whole entry Q247A): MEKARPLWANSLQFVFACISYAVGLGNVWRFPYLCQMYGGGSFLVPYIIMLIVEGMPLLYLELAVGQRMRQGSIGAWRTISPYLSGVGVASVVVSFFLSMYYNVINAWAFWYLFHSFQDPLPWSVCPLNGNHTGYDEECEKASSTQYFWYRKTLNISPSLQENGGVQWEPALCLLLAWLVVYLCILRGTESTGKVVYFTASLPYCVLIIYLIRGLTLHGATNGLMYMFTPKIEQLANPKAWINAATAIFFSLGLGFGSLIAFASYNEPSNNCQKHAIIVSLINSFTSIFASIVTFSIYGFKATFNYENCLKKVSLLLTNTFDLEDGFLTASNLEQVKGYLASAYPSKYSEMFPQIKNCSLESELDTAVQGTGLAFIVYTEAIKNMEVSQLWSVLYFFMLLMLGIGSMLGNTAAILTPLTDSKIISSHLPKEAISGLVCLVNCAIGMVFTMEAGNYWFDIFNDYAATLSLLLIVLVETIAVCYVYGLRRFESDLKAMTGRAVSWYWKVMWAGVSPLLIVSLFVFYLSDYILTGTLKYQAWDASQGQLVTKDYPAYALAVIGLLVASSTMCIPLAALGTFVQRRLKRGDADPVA
T2 sequence (Q9BYF1 18-805 partner): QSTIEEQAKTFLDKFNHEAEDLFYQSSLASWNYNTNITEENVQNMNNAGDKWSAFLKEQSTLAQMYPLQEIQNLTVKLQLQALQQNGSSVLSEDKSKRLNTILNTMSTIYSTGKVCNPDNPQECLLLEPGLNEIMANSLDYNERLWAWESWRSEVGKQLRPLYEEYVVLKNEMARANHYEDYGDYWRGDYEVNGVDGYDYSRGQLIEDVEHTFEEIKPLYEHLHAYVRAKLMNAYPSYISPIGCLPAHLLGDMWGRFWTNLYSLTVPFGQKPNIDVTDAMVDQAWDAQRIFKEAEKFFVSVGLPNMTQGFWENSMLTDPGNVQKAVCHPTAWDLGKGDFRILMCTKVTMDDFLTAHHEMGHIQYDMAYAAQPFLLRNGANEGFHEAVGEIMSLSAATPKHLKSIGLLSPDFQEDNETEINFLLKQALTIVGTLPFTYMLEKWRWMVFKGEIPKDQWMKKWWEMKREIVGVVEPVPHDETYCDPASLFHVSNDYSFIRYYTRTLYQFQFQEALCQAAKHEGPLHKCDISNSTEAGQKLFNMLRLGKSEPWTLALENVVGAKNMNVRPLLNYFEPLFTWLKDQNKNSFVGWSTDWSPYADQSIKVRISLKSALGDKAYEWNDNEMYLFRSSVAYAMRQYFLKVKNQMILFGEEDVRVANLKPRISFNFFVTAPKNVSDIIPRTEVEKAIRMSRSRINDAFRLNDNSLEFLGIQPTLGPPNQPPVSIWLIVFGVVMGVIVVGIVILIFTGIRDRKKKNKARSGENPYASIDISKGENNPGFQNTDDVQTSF

[3] = molecular target: T3, ACE2-SIT1 complex (Homo sapiens, UniProt Q9NP91); experiment: as above; type: cell-based
T3 construct: gene SLC6A20; co-expressed in HEK293T cells for currents; purified complex for cryo-EM (two protomers, each ACE2 plus SIT1); with Angiotensin-converting enzyme 2
T3 sequence (Q9NP91 whole entry): as the sequence (Q9NP91 whole entry Q247A) above, with A247Q counted along it
T3 sequence (Q9BYF1 18-805 partner): as the sequence (Q9BYF1 18-805 partner) above

[4] = molecular target: T1, ACE2-B^0AT1 complex; experiment: cryo-EM structure of the complex, […] A; type: binding; details: central substrate site between TM1 and TM6; remark: listed apart in the source

T1 sequence (Q695T7 whole entry): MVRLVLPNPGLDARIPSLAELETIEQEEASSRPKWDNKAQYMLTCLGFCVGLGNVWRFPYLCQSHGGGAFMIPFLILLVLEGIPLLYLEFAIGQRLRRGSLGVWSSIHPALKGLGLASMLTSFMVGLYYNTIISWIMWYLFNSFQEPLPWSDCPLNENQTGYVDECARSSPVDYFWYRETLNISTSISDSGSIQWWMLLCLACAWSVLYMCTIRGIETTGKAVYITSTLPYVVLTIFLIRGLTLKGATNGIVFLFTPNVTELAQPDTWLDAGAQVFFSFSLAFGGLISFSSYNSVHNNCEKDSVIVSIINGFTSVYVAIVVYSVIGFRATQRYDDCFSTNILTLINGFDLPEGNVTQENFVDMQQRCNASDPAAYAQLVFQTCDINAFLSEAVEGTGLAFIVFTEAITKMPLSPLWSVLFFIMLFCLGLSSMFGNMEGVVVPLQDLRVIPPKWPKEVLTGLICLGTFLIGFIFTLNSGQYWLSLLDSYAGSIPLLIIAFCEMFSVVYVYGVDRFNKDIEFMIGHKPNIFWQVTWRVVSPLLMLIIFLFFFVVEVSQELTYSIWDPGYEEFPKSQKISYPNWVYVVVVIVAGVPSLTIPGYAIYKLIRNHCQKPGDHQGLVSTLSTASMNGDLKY
T1 sequence (Q9BYF1 18-805 partner): as the sequence (Q9BYF1 18-805 partner) above

CSCC[C@H](N)C(=O)O [Met]
cryo-EM structure of the complex, 3.1 A [1]: ACE2-B^0AT1 complex bound to its native substrates Gln and Met are determined

O=C(O)[C@@H]1CCCN1 [Pro]
EC50 [2]: ~70 µM | EC50 [3]: ~2510 µM

NC(=O)CC[C@H](N)C(=O)O [Gln]
cryo-EM structure of the complex, 3.2 A [4]: ACE2-B^0AT1 complex bound to its native substrates Gln and Met are determined

— article PMC10491607, “Structural insight into the substrate recognition and transport mechanism of amino acid transporter complex ACE2-B^0AT1 and ACE2-SIT1” (Cell Discovery, 2023)
